The target in one assay is T1, human PPARα receptor (Homo sapiens, UniProt Q07869).
T1 construct: expressed in transfected cells; host or cells: CV-1 cells (pSG5-based expression vector)
T1 sequence (Q07869 167-468): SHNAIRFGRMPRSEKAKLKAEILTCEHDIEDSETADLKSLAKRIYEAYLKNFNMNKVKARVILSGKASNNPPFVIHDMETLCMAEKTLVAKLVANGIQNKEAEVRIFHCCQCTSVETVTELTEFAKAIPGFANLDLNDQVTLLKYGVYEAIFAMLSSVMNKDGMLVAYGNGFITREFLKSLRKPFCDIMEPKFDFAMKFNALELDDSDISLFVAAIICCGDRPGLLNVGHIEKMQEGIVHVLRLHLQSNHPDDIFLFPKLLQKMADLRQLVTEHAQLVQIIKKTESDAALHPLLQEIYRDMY
Kind of assay: Luciferase reporter assay of PPARα agonist activity (Gal4-PPARα chimera receptor in CV-1 cells). The conditions noted are these: for PPARα agonist activity, relative activity: luciferase activity with 10 μM Wy-14,643 taken as 100; for Emax at 0.1 µM: CV-1, 0.1 μM compound; for Emax at 0.1 µM / Emax at 1 µM / Emax at 10 µM: luciferase activity with 10 μM Wy-14,643 taken as 100, read-out: PPARα agonist activity, relative activity; for Emax at 1 µM: CV-1, 1 μM compound; for Emax at 10 µM: CV-1, 10 μM compound. The assay is classed as cell-based. The protocol: (§1) Measurement of PPARα Agonist Activity and PPARγ Agonist Activity
(§2) 1. Materials for Assay of Luciferase Using Human PPARα and PPARγ Receptors
(§3) The entire procedure was carried out according to the fundamental methods of genetic engineering and the ordinary method in the yeast one-hybrid or two-hybrid system was applied.
(§4) PGL2-UAS5-TK-luc was prepared as a reporter plasmid carrying a response sequence of Gal4 protein as a basic transcription factor of yeast, an enhancer sequence with five repeat part of UAS, a luciferase gene (luc) under the control of timidine kinase (TK) promoter. Specifically, a DNA fragment encoding a TK promoter (−105/+51) on the downstream side of an enhancer sequence comprising two time repeat of UAS was amplified by PCR using pRL-TK carrying a TK promoter (Promega, Trade name: Catalogue No. E2241) as the template and the primers: […]
(§5) After the fragment was cleaved with XhoI-Hind III, pGL2-UAS2-TK-luc was obtained by inserting the resultant fragment into the XhoI-Hind III site located on the upstream side of a luciferase structural gene on pGL2-Basic vector (Promega, Trade name: Catalogue No. E1641).
(§6) After cleavage of a synthetic DNA as an enhancer sequence comprising three time repeat of Gal4 response sequence (SEQ ID NO: 3): 5′-ATTGGTAC([…])×3 AGATCTCGAC) using KpnI and BgIII was carried out, pGL2-UAS5-TK-luc was prepared by inserting the resulting fragment into the KpnI-BgIIIb site of pGL2-UAS2-TK-luc.
(§7) A vector for expression of a chimera receptor protein, in which a ligand binding region of an internuclear receptor human PPARα or PPARγ receptor was fused with the carboxyl terminal of a DNA binding region of yeast Ga14 protein, was prepared as follows:
(§8) The structural gene of pSG5 (STRATAGENE, Trade Name: Catalogue No. 216201) as the basic expression vector was changed for the chimera receptor except that the promoter-enhancer region was maintained as it was.
(§9) The DNA encoding the ligand binding region of the human PPARα or PPARγ receptor was fused on the downstream side of the DNA encoding the DNA binding region and the amino acid sequence from 1 to 147 positions of Ga14 protein so that their reading frames were fitted and the resulting fused DNA was inserted into pSG5 (trade name) on the down stream side of the promoter-enhancer region. In this step, the DNA sequence was arranged so that a signal for transfer into the nucleus (Ala Pro Lys Lys Lys Arg Lys Val Gly (SEQ ID: No: 4) derived from SV-40T antigen was located on the amino terminal of the ligand binding region of PPARα or PPARγ receptor in order to localize the chimera receptor in the nucleus.
(§10) Based on comparison of the human PPAR receptors described in R. Mukherjee et al., [see J. Steroid Biochem. Molec. Biol., Vol. 51, p157 (1994)] and M. E. Green et al., [see Gene Expression, Vol. 4, p281 (1995))], as the structural gene part used for the ligand binding region PPARα or PPARγ, the human PPARα ligand binding region: Ser167-Tyr468; and the PPARγ ligand binding region: Ser176-Tyr478 were used, which had the same sequences corresponding to Ser204-Tyr506 for human PPARγ1 receptor and human PPARγ2, respectively.
(§11) In order to monitor influence against the basic transcription, an expression vector was prepared which carried a DNA encoding only the DNA binding region and the amino acid sequence from 1 to 147 position of Ga14 protein defective in its PPAR ligand binding region and a signal for transfer into the nucleus of SV-40T-antigen.
(§12) 2. Assay of Luciferase Using Human PPARα or PPARγ Receptor
(§13) CV-1 cells used as a host cell were cultivated according to an ordinary method. Specifically, a fetal bovine serum (Intergent, Catalogue No. 1020-90) was added to a Dulbecco's modified Eagle's medium (DMEM) so that the final concentration became 10%. Further, penicillin G (50 U/ml) and streptomycin sulfate (50 μg/ml) were added. Cultivation was conducted in the resulting medium in a 5% carbon dioxide gas at 37° C. […]

Another assay addresses T2, human PPARγ receptor (Homo sapiens, UniProt P37231).
T2 construct: corresponding to Ser204-Tyr506 for human PPARγ1 receptor and human PPARγ2; expressed in transfected cells; host or cells: CV-1 cells (pSG5-based expression vector)
T2 sequence (P37231 204-505 limits assumed): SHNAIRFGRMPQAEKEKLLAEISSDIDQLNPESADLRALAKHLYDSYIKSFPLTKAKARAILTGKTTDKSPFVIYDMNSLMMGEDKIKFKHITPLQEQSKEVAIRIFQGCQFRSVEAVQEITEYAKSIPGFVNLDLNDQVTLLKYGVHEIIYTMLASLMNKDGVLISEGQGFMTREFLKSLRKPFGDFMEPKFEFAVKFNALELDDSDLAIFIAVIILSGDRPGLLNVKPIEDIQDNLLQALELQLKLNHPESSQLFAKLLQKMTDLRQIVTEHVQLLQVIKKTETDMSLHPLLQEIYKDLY
As to the kind of experiment: Luciferase reporter assay of PPARγ agonist activity (Gal4-PPARγ chimera receptor in CV-1 cells). The note with it: for PPAR γ agonist activity, relative activity: luciferase activity with 1 μM Pioglitazone taken as 100; for Emax at 0.1 µM: CV-1, 0.1 μM compound; for Emax at 0.1 µM / Emax at 1 µM / Emax at 10 µM: luciferase activity with 1 μM Pioglitazone taken as 100, read-out: PPAR γ agonist activity, relative activity; for Emax at 1 µM: CV-1, 1 μM compound; for Emax at 10 µM: CV-1, 10 μM compound. It is filed as cell-based. The protocol: as §1, §2, §3, §4, §5, §6, §7, §8, §9, §10, §11, §12, §13
In general terms: A reporter such as luciferase makes a cellular process visible.

As to `CCOC(Cc1ccc(OCc2ccc3ncccc3c2)cc1)C(=O)O` (stereo not drawn) [Example 10 (32), 2-ethoxy-3-{[4-(quinoline-6-yl)methyloxy]phenyl}propanoic acid], the “PPARα agonist activity, relative activity” value turned out to be 0.2 at human PPARα receptor (0.1 μM compound), 0.3 at human PPARα receptor (1 μM compound) and 50.1 on human PPARα receptor (10 μM compound). Further, the results for the “PPAR γ agonist activity, relative activity” value at human PPARγ receptor (0.1 μM compound), at human PPARγ receptor (1 μM compound) and on human PPARγ receptor (10 μM compound) were 1.0, 20.8 and 123.9, respectively.
Take `CCOC(Cc1ccc(OCc2cc(OC)c3ccccc3n2)cc1)C(=O)O` (stereo not drawn) [Example 11 (99), 2-ethoxy-3-{[4-(4-methoxyquinoline-2-yl)methyloxy]phenyl}propanoic acid]: on human PPARα receptor, the Emax at 0.1 µM worked out at 25.2%, the Emax at 1 µM was found to be 64.3% and the Emax at 10 µM is 68.6%. Also, on human PPARγ receptor, the Emax at 0.1 µM was determined as 75.2%, the Emax at 1 µM was 115% and the Emax at 10 µM was 106%.
`CCOC(Cc1ccc(OCc2cnc3ccc(CC)cc3c2OC(C)C)cc1)C(=O)O` (stereo not drawn) [Example 6 (67), 2-ethoxy-3-{[4-(4-isopropoxy-6-ethylquinoline-3-yl)methyloxy]phenyl}propanoic acid]: at human PPARα receptor, the Emax at 0.1 µM was 5.7%, the Emax at 1 µM was determined as 47.1% and the Emax at 10 µM amounted to 74%. At human PPARγ receptor, the Emax at 0.1 µM was found to be 122%, the Emax at 1 µM was determined as 140% and the Emax at 10 µM came to 125%.
Regarding `CCOC(Cc1ccc(OCc2cnc3c(F)cccc3c2OC(C)C)cc1)C(=O)O` (stereo not drawn) [Example 15 (82), 2-ethoxy-3-{[4-(8-fluoro-4-isopropoxyquinoline-3-yl)methyloxy]phenyl}propanoic acid], on human PPARα receptor, the Emax at 0.1 µM worked out at 0.3%, the Emax at 1 µM was 0.3% and the Emax at 10 µM came to 5%. Besides, at human PPARγ receptor, the Emax at 0.1 µM was 52.3%, the Emax at 1 µM was found to be 133% and the Emax at 10 µM came out at 125%.
On to `CCOC(Cc1ccc(OCc2cccc3cccnc23)cc1)C(=O)O` (stereo not drawn) [Example 16 (32), 2-ethoxy-3-{[4-(quinoline-8-yl)methyloxy]phenyl}propanoic acid], for which, at human PPARα receptor, the Emax at 0.1 µM was 0.3%, the Emax at 1 µM stood at 0.4% and the Emax at 10 µM amounted to 45.2%. Besides, at human PPARγ receptor, the Emax at 0.1 µM is 1.6%, the Emax at 1 µM amounted to 71.8% and the Emax at 10 µM amounted to 127%.
In the case of `CCOC(=O)C(Cc1ccc(OCc2cnc3ccc(OC)cc3c2OC(C)C)cc1)OCC` (stereo not drawn) [Example 1 (101), ethyl 2-ethoxy-3-{[4-(4-isopropoxy-6-methoxyquinoline-3-yl)methyloxy]phenyl}propanoate], at human PPARα receptor, the Emax at 0.1 µM was 0.2%, the Emax at 1 µM was 0.9% and the Emax at 10 µM is 28.7%. In addition, on human PPARγ receptor, the Emax at 0.1 µM worked out at 98.6%, the Emax at 1 µM worked out at 127% and the Emax at 10 µM came out at 102%.
Take `CCOC(Cc1ccc(OCc2cnc3cc(OC)c(OC)cc3c2OC(C)C)cc1)C(=O)O` (stereo not drawn) [Example 8 (65), 2-ethoxy-3-{[4-(4-isopropoxy-6,7-dimethoxyquinoline-3-yl)methyloxy]phenyl}propanoic acid]: at human PPARα receptor, the Emax at 0.1 µM was determined as 0.3%, the Emax at 1 µM came out at 0.3% and the Emax at 10 µM came to 1.5%. Besides, on human PPARγ receptor, the Emax at 0.1 µM amounted to 1.3%, the Emax at 1 µM stood at 13% and the Emax at 10 µM was found to be 107%.
On to `COc1ccc2ncc(COc3ccc(CC(Sc4ccccc4)C(=O)O)cc3)c(OC(C)C)c2c1` (stereo not drawn) [Example 19 (108), 3-{[4-(4-isopropoxy-6-methoxyquinoline-3-yl)methyloxy]phenyl}-2-phenylthiopropanoic acid], for which, at human PPARα receptor, the Emax at 0.1 µM came to 0.3%, the Emax at 1 µM turned out to be 0.3% and the Emax at 10 µM came out at 0.6%. Also, at human PPARγ receptor, the Emax at 0.1 µM was 25.2%, the Emax at 1 µM was found to be 83.5% and the Emax at 10 µM worked out at 97.9%.
In the case of `CCCCCCCCOc1c(COc2ccc(CC(OCC)C(=O)O)cc2)cnc2ccc(OC)cc12` (stereo not drawn) [Example 7 (63), 2-ethoxy-3-{[4-(4-octyloxy-6-methoxyquinoline-3-yl)methyloxy]phenyl}propanoic acid], at human PPARα receptor, the Emax at 0.1 µM stood at 0.4%, the Emax at 1 µM turned out to be 4.5% and the Emax at 10 µM turned out to be 64.4%. On human PPARγ receptor, the Emax at 0.1 µM turned out to be 13.5%, the Emax at 1 µM was 63.3% and the Emax at 10 µM turned out to be 114%.
`CCOC(Cc1ccc(OCc2cnc3c(Cl)cccc3c2OC(C)C)cc1)C(=O)O` (stereo not drawn) [Example 13 (76), 3-{[4-(8-chloro-4-isopropoxyquinoline-3-yl)methyloxy]phenyl}-2-ethoxypropanoic acid]: on human PPARα receptor, the Emax at 0.1 µM came to 0.3%, the Emax at 1 µM is 0.9% and the Emax at 10 µM stood at 41.1%. Further, on human PPARγ receptor, the Emax at 0.1 µM was found to be 104%, the Emax at 1 µM was found to be 140% and the Emax at 10 µM was found to be 130%.
In the case of `COc1ccc2ncc(COc3ccc(/C=C(\Sc4ccccc4)C(=O)O)cc3)c(OC(C)C)c2c1` [Example 18 (112), 3-{[4-(4-isopropoxy-6-methoxyquinoline-3-yl)methyloxy]phenyl}-2-phenylthiopropenoic acid], on human PPARα receptor, the Emax at 0.1 µM amounted to 0.3%, the Emax at 1 µM stood at 0.3% and the Emax at 10 µM came out at 0.3%. Besides, on human PPARγ receptor, the Emax at 0.1 µM was 0.5%, the Emax at 1 µM worked out at 22.2% and the Emax at 10 µM was 89.9%.

Values taken from US20030212100A1, “Quinoline derivatives and medicinal use thereof” (priority 2000, published 2003).
